Consider one compound from patent US10251874B2, “Crystalline forms of a JAK inhibitor compound” (THERAVANCE BIOPHARMA R&D IP, LLC, priority 2017, dated 2019).

The target in one assay is T1, JAK1 (Homo sapiens, UniProt P23458).
T1 construct: GST; purchased Life Technologies
The experiment in a line: Assay 1: LanthaScreen biochemical JAK kinase assay, JAK1. Conditions: converted from pIC50 by Cheng-Prusoff; ATP at Km 25 μM; read-out: JAK 1 pKi (converted). As for the experimental part:
A panel of four LanthaScreen JAK biochemical assays (JAK1, 2, 3 and Tyk2) were carried in a common kinase reaction buffer (50 mM HEPES, pH 7.5, 0.01% Brij-35, 10 mM MgCl2, and 1 mM EGTA). Recombinant GST-tagged JAK enzymes and a GFP-tagged STAT1 peptide substrate were obtained from Life Technologies.
The serially diluted compound was pre-incubated with each of the four JAK enzymes and the substrate in white 384-well microplates (Corning) at ambient temperature for lh. ATP was subsequently added to initiate the kinase reactions in 10 μL total volume, with 1% DMSO. […] The plates were allowed to incubate at ambient temperature for lh before being read on the EnVision reader (Perkin Elmer). Emission ratio signals (520 nm/495 nm) were recorded and utilized to calculate the percent inhibition values based on DMSO and background controls.
For dose-response analysis, percent inhibition data were plotted vs. compound concentrations, and IC50 values were determined from a 4-parameter robust fit model with the Prism software (GraphPad Software). Results were expressed as pIC50 (negative logarithm of IC50) and subsequently converted to pK1 (negative logarithm of dissociation constant, Ki) using the Cheng-Prusoff equation.

Assay [1] has as its system IL-13 induced pSTAT6 in lung tissue. Briefly: Assay 9: Murine model of IL-13 induced pSTAT6 induction in lung tissue. Conditions: mouse, 0.5 mg/mL 50 μL oral aspiration; after IL-13 challenge (so in the source). The format is in vivo, balb/c mice. As for the experimental part: 11-13 is an important cytokine underlying the pathophysiology of asthma (Kudlacz et al. Eur. J. Pharmacol, 2008, 582,154-161). IL-13 binds to cell surface receptors activating members of the Janus family of kinases (JAK) which then phosphorylate STAT6 and subsequently activates further transcription pathways. In the described model, a dose of IL-13 was delivered locally into the lungs of mice to induce the phosphorylation of STAT6 (pSTAT6) which is then measured as the endpoint.
Adult balb/c mice from Harlan were used in the assay. On the day of study, animals were lightly anesthetized with isoflurane and administered either vehicle or test compound (0.5 mg/mL, 50 μL total volume over several breaths) via oral aspiration. Animals were placed in lateral recumbency post dose and monitored for full recovery from anesthesia before being returned to their home cage. Four hours later, animals were once again briefly anesthetized and challenged with either vehicle or IL-13 (0.03 μg total dose delivered, 50 μL total volume) via oral aspiration before being monitored for recovery from anesthesia and returned to their home cage. […] using an anti-pSTAT6 ELISA (rabbit mAb capture/coating antibody; mouse mAb detection/report antibody: anti-pSTAT6-pY641; secondary antibody: anti-mouse IgG-HRP) and analyzed for total drug concentration as described above in Assay 12. […]

In the next assay the test system is IFNγ-induced IP-10. Briefly: Assay 14: Pharmacodynamic assay: inhibition of IFNγ-induced IP-10 in rabbits. The format is in vivo, New Zealand White rabbits. Conditions: rabbit. As for the experimental part: The ability of a single intravitreal administration of test compound to inhibit interferon-gamma (IFNγ) induced IP-10 protein levels was measured in rabbit vitreous and retina/choroid tissues.
Solution formulations at concentrations of 1 mg/mL and 4 mg/mL of compound 1 of Example 2 were prepared as in Assay 12. A suspension formulation was prepared by combining crystalline compound 1 of Example 2 with 0.5% hydroxypropyl methylcellulose (HPMC E5), 0.02% Tween 80, and 9 mg/mL sodium chloride in purified water to attain a target concentration of 20 mg/mL.
Male, New Zealand White rabbits (Liveon Biolabs, India) were used for the studies. Animals were acclimated after arrival at the research facilities (Jubilant Biosys Ltd., India). Each rabbit was given a total of two intravitreal (IVT) injections with a total dose volume of 50 μL per eye. The first IVT injection (45 μL per eye) delivered test compound or vehicle at a prescribed time point (i.e. 24 hours for the solution formulations or 1 week for the suspension formulation). The second IVT injection (5 μL per eye) delivered IFNγ (1 μg/eye; Stock solution 1 mg/mL; Kingfisher Biotech) or vehicle for the induction of IP-10. In brief, on the day of the injections, rabbits were anesthetized with an intramuscular injection of ketamine (35 mg/kg) and xylazine (5 mg/kg). Once deeply anesthetized, each eye was rinsed with sterile saline and IVT injections were performed using a 0.5 mL insulin syringe (50 units=0.5 mL) with a 31-gauge needle at the supra-nasal side of the both eyes by marking the position with a Braunstein fixed caliper (2 ¾″) 3.5 mm from the rectus muscle and 4 mm from the limbus.
Tissues were collected 24 hours after the second IVT injection with IFNγ. Vitreous humor (VH) and retina/choroid tissues (R/C) were collected and homogenized, and IP-10 protein levels were measured using a rabbit CXCL10 (IP-10) ELISA kit (Kingfisher Biotech). The percent inhibition of IFNγ-induced IP-10 was calculated in comparison to the vehicle/vehicle and vehicle/IFNγ groups.

The mark [2] stands for this setting: IVT crystalline suspension 20 mg/mL (Example 2), 1 week pre-treatment.
Setting [3] is: IVT solution, 45 μg, 24 hour pre-treatment.
[4] abbreviates: IVT solution, 180 μg, 24 hour pre-treatment.

T1 sequence (P23458 whole entry): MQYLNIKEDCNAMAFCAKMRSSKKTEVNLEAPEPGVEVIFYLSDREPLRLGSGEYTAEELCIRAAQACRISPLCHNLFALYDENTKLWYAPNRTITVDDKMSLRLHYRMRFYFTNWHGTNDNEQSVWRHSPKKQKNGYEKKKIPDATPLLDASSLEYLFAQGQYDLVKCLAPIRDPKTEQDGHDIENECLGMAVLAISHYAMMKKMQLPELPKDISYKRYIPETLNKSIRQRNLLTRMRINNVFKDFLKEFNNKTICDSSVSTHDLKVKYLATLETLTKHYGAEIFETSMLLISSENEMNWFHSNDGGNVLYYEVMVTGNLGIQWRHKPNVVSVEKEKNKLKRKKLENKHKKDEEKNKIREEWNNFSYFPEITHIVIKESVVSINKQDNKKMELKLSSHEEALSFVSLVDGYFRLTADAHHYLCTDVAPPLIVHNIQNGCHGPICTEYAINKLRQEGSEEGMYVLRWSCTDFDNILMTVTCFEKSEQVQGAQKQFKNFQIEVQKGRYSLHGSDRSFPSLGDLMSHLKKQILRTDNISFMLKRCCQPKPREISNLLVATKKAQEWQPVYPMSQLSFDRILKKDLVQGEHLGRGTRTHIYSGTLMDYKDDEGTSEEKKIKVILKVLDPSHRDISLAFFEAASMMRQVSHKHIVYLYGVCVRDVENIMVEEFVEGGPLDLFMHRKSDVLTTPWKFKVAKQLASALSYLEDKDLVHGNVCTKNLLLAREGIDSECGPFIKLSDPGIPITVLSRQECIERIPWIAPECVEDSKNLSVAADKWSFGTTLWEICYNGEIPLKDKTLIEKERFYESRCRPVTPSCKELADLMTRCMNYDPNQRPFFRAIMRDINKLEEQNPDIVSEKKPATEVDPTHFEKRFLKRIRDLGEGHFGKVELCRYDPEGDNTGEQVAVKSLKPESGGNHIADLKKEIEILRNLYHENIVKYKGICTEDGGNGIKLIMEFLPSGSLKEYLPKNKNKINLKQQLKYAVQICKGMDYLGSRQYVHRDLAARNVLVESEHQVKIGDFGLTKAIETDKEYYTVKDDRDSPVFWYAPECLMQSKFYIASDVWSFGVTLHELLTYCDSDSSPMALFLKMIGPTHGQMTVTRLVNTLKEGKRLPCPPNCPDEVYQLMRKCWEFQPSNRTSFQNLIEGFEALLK

Turning to `CCc1cc(O)c(F)cc1-c1ccc2c(-c3nc4c([nH]3)CCN(C3CCN(C)CC3)C4)n[nH]c2c1` [Compound 1, 5-ethyl-2-fluoro-4-(3-(5-(1-methylpiperidin-4-yl)-4,5,6,7-tetrahydro-1H-imidazo[4,5-c]pyridin-2-yl)-1H-indazol-6-yl)phenol], the Ki at JAK1 was 0.0631 nM. Also, the “inhibition of STAT6 phosphorylation in lung” value in assay [1] is recorded as “about 60%”. In the assay on IFNγ-induced IP-10 (setting [2]), the “inhibition of IFNγ-induced IP-10 in retina/choroid tissues” value is listed as 100% and the “inhibition of IFNγ-induced IP-10 in vitreous humor” value (shortened to “inhibition … in vitreous humor”) is 100%. Also, in the assay on IFNγ-induced IP-10 (setting [3]), the “inhibition of IFNγ-induced IP-10 in retina/choroid tissue” value turned out to be 86% and the “inhibition … in vitreous humor” value was 70%. Besides, in the assay on IFNγ-induced IP-10 (setting [4]), the “inhibition of IFNγ-induced IP-10 in retina/choroid tissue” value was found to be 100% and the “inhibition … in vitreous humor” value is reported as 91%.
